Reference: ChEMBL document CHEMBL3885861, “Open TG-GATES”

Species on record: Rattus norvegicus
Experiment: Open TG-GATES - Regimen: Single
Type: toxicity, organism-based, Sprague-Dawley
Parameters: regimen Single, gender Male, age 6 weeks
Details: in vivo, po, 0 mg/kg, route gavage, dose level Control; for APTT / Bas / Eos / Fbg / Hb / Ht / Lym / MCH / MCHC / MCV / Mono / Neu / PT / Plat / RBC / Ret / WBC: tissue Blood; for LIVER: tissue Liver; for A/G / ALP / ALT / AST / BUN / CRE / Ca / Cl / DBIL / GLC / IP / K / LDH / Na / PL / RALB / TBIL / TC / TG / TP / gamma-GTP: tissue Plasma

## O=[N+]([O-])c1ccc(O)c([N+](=O)[O-])c1 [2,4-DINITROPHENOL]
3 h
  TERMINAL_BW: 200.9 g
  APTT: 15.9 s
  Bas: 0%
  Eos: 0.8%
  Fbg: 241.6 mg/dL
  Hb: 13.2 g/dL
  Ht: 39.5%
  Lym: 74%
  MCH: 21.6 pg
  MCHC: 33.5%
  MCV: 64.4 fL
  Mono: 8.4%
  Neu: 16.8%
  PT: 11.8 s
  Plat: 109.2 x10_4/uL
  RBC: 613.4 x10_4/ul
  Ret: 9.5%
  WBC: 98.2 x10_2/uL
  LIVER: 9.3 g
  A/G: 2.4
  ALP: 1373.4 IU/L
  ALT: 40.8 IU/L
  AST: 69.4 IU/L
  BUN: 11 mg/dL
  CRE: 0.3 mg/dL
  Ca: 11.1 mg/dL
  Cl: 103.6 meq/L
  DBIL: 0.01 mg/dL
  GLC: 175.6 mg/dL
  IP: 9.4 mg/dL
  K: 4.4 meq/L
  LDH: 117.8 IU/L
  Na: 138.6 meq/L
  PL: 150.4 mg/dL
  RALB: 3.7 g/dL
  TBIL: 0.044 mg/dL
  TC: 87.2 mg/dL
  TG: 52.4 mg/dL
  TP: 5.3 g/dL
  gamma-GTP: 0 IU/L
6 h
  TERMINAL_BW: 197.1 g
  APTT: 16.4 s
  Bas: 0%
  Eos: 0.8%
  Fbg: 232 mg/dL
  Hb: 13.4 g/dL
  Ht: 39.8%
  Lym: 77.2%
  MCH: 21.5 pg
  MCHC: 33.6%
  MCV: 63.9 fL
  Mono: 9.6%
  Neu: 12.4%
  PT: 12.2 s
  Plat: 127 x10_4/uL
  RBC: 623.4 x10_4/ul
  Ret: 8.9%
  WBC: 127.4 x10_2/uL
  LIVER: 8.9 g
  A/G: 2.5
  ALP: 1236 IU/L
  ALT: 36.4 IU/L
  AST: 63.4 IU/L
  BUN: 10.4 mg/dL
  CRE: 0.4 mg/dL
  Ca: 10.8 mg/dL
  Cl: 104.8 meq/L
  DBIL: 0.01 mg/dL
  GLC: 191.6 mg/dL
  IP: 9.3 mg/dL
  K: 4.4 meq/L
  LDH: 96.8 IU/L
  Na: 138.8 meq/L
  PL: 135.4 mg/dL
  RALB: 3.9 g/dL
  TBIL: 0.056 mg/dL
  TC: 79.8 mg/dL
  TG: 52.4 mg/dL
  TP: 5.5 g/dL
  gamma-GTP: 0 IU/L
9 h
  TERMINAL_BW: 203.5 g
  APTT: 15.9 s
  Bas: 0%
  Eos: 1%
  Fbg: 234.6 mg/dL
  Hb: 13 g/dL
  Ht: 38.7%
  Lym: 76.2%
  MCH: 22 pg
  MCHC: 33.7%
  MCV: 65.1 fL
  Mono: 8.8%
  Neu: 14.6%
  PT: 12.2 s
  Plat: 117.6 x10_4/uL
  RBC: 595.4 x10_4/ul
  Ret: 9.4%
  WBC: 108 x10_2/uL
  LIVER: 8.7 g
  A/G: 2.5
  ALP: 1123.8 IU/L
  ALT: 32.8 IU/L
  AST: 63.8 IU/L
  BUN: 11.6 mg/dL
  CRE: 0.3 mg/dL
  Ca: 10.9 mg/dL
  Cl: 104.2 meq/L
  DBIL: 0.01 mg/dL
  GLC: 195.2 mg/dL
  IP: 10.4 mg/dL
  K: 4.6 meq/L
  LDH: 109.6 IU/L
  Na: 139.4 meq/L
  PL: 140 mg/dL
  RALB: 3.8 g/dL
  TBIL: 0.044 mg/dL
  TC: 84.6 mg/dL
  TG: 47.8 mg/dL
  TP: 5.4 g/dL
  gamma-GTP: 0.2 IU/L
24 h
  TERMINAL_BW: 219.1 g
  APTT: 16.3 s
  Bas: 0%
  Eos: 1.2%
  Fbg: 228.6 mg/dL
  Hb: 12.7 g/dL
  Ht: 37.5%
  Lym: 72%
  MCH: 21.1 pg
  MCHC: 33.8%
  MCV: 62.5 fL
  Mono: 9.4%
  Neu: 17.8%
  PT: 11.6 s
  Plat: 138.4 x10_4/uL
  RBC: 600 x10_4/ul
  Ret: 8.1%
  WBC: 106.6 x10_2/uL
  LIVER: 10.9 g
  A/G: 2.4
  ALP: 1480.2 IU/L
  ALT: 37.4 IU/L
  AST: 62.4 IU/L
  BUN: 17 mg/dL
  CRE: 0.4 mg/dL
  Ca: 11.4 mg/dL
  Cl: 103.2 meq/L
  DBIL: 0.012 mg/dL
  GLC: 185.6 mg/dL
  IP: 7.6 mg/dL
  K: 4.6 meq/L
  LDH: 84.2 IU/L
  Na: 139 meq/L
  PL: 160.4 mg/dL
  RALB: 3.9 g/dL
  TBIL: 0.034 mg/dL
  TC: 84 mg/dL
  TG: 120.4 mg/dL
  TP: 5.5 g/dL
  gamma-GTP: 0.2 IU/L
